Reference: patent US10875874B2, “Ginkgolide B derivative and preparation method and use thereof” (Chengdu Baiyu Ginkgolide Pharmaceuticals Co., Ltd., priority 2015, dated 2020)
Converted amounts (≈) assume the structure as drawn. Marks after values point to notes of the source that are not given here.

Experiments:
[1] = Weekly food intake of SHR rats; assay type: in vivo, rat
Protocol: (§1) 2.1 Grouping and administration of animals: 112 SHR rats (the female and male SHR rats are half and half, and the female rats are not pregnant) with the body weight of 200-250 g are taken, the rats are enabled to adapt to a laboratory for a period of 5 d, blood pressure is measured once at a day to enable the rats to adapt to the environment and detect stimulation. Then, weighing and numbering are carried out, and the SHR rats are equally divided into 14 groups randomly (each group comprises 8 rats), i.e., an SHR rat model control group, a positive control group (captopril, 27 mg/kg), a BZ large-dose group (120 mg/kg/d), a BZ small-dose group (60 mg/kg/d), a BA large-dose group (120 mg/kg/d), a BA small-dose group (60 mg/kg/d), a BL large-dose group (120 mg/kg/d), a BL small-dose group (60 mg/kg/d), a BM large-dose group (120 mg/kg/d), a BM small-dose group (60 mg/kg/d), a BD large-dose group (120 mg/kg/d), a BD small-dose group (60 mg/kg/d), a GB large-dose group (120 mg/kg/d) and a GB small-dose group (60 mg/kg/d). In addition, 8 healthy Wistar rats are taken as a normal control group. Intragastric administration is performed on the rats of each drug group separately according to the above-mentioned doses by 1 mL/100 g body weight, intragastric administration is performed on the rats of the normal control group and the rats of the SHR rat model control group with an equal volume of distilled water, and administration is performed continuously for 8 weeks.
(§2) 2.2 General state: during observation, conditions such as mind, water drinking, food intake, bowel movement, hair color, body weight and range of motion of rats are observed. Irritable degrees of the rats are divided into III levels: a level I means that the rats are free of obvious response when necks of the rats are seized; a level II means that the rats scream and startle when the necks of the rats are seized; and a level III means that the rats bite or rats of same cages frequently fight when the necks of the rats are seized.
(§3) 3.1 Influence on general state of spontaneously hypertensive rats: the rats of the normal control group are normal in food intake, drinking and motion conditions, sensitive in response, healthy and glossy in hair color, good in mental state and free of any unusual response; the rats of the SHR model group gradually present that back hair is fluffy, clustered and dim, the appetite is reduced, the body weight is reduced, the mind is dispirited and irritable, and the rats are prone to the behaviors of intense resisting, attacking and so on during administration and blood pressure detection, and irritable degrees are mostly changed to a level II and a level III from a level I; and after single administration of ginkgolide B and derivatives thereof, behavioral general state observations of rats of each group are free of obvious difference from those of the model control group.

[2] = test system: spontaneously hypertensive rats (SHR); assay: Caudal artery systolic pressure of spontaneously hypertensive rats, 8 weeks of continuous medication; assay type: in vivo, rat; conditions: x ± s, n = 8
Protocol: as §1
(§4) 2.3 Blood pressure measuring: caudal artery systolic pressure of rats is measured with a Bp-6 noninvasive blood pressure measuring system. Under the condition that the rats are calm, the systolic pressure is continuously measured for 3 times, and the average value of the measured systolic pressure is taken as a pressure measuring result. Observation indexes: (1) single-administration pressure lowering effect: blood pressure of the rats is measured before administration and blood pressure conditions are measured 30 min, 60 min, 90 min and 120 min after first administration; and (2) continuous-administration pressure lowering condition: blood pressure is separately measured 30 min after administration at 1 d, 7 d, 13 d, 19 d, 25 d, 35 d, 49 d and 56 d, the blood pressure is repeatedly measured for 3 times at a day, and the average value of obtained values is taken as a final blood pressure value.

Water solubility test = conditions: purified water, thermodynamic from solid
Protocol: Measuring method: samples are ground to obtain fine powder, target compounds are quantitatively weighed, the weighed compounds are added into purified water, and the solubility of the compounds is investigated by ultrasonics.

[3] = Weekly body weight of SHR rats; assay type: in vivo, rat
Protocol: as §1, §2, §3

[4] = test system: spontaneously hypertensive rats (SHR); assay: Caudal artery systolic pressure of spontaneously hypertensive rats, single administration; assay type: in vivo, rat; conditions: x ± s, n = 8
Protocol: as §1, §4

[5] = 60 mg/kg/d intragastric, week 0
[6] = 60 mg/kg/d intragastric, week 1
[7] = 60 mg/kg/d intragastric, week 2
[8] = 60 mg/kg/d intragastric, week 3
[9] = 60 mg/kg/d intragastric, week 4
[10] = 60 mg/kg/d intragastric, week 5
[11] = 60 mg/kg/d intragastric, week 6
[12] = 60 mg/kg/d intragastric, week 7
[13] = 60 mg/kg/d intragastric, week 8
[14] = 120 mg/kg/d intragastric, week 0
[15] = 120 mg/kg/d intragastric, week 1
[16] = 120 mg/kg/d intragastric, week 2
[17] = 120 mg/kg/d intragastric, week 3
[18] = 120 mg/kg/d intragastric, week 4
[19] = 120 mg/kg/d intragastric, week 5
[20] = 120 mg/kg/d intragastric, week 6
[21] = 120 mg/kg/d intragastric, week 7
[22] = 120 mg/kg/d intragastric, week 8

CC(=O)Oc1ccccc1C(=O)O[C@H]1C(=O)O[C@H]2O[C@]34C(=O)OC5C[C@@H](C(C)(C)C)C21[C@@]53[C@@H](O)[C@@H]1OC(=O)[C@@H](C)[C@@]14O (some centres unmarked) [BA]
Average dairy food intake [1, 5]: 17.9 g/day | Average dairy food intake [1, 6]: 18.6^▴ g/d | Average dairy food intake [1, 7]: 19.8^▴ g/d | Average dairy food intake [1, 8]: 19.6^▴ g/d | Average dairy food intake [1, 9]: 18.9^▴ g/d | Average dairy food intake [1, 10]: 20.7^▴▴ g/d | Average dairy food intake [1, 11]: 22.3^▴▴ g/d | Average dairy food intake [1, 12]: 24.6^▴▴ g/d | Average dairy food intake [1, 13]: 25.5^▴▴ g/d | Average dairy food intake [1, 14]: 18.1 g/day | Average dairy food intake [1, 15]: 19.8^▴ g/d | Average dairy food intake [1, 16]: 20.1^▴▴ g/d | Average dairy food intake [1, 17]: 20.8^▴▴ g/d | Average dairy food intake [1, 18]: 21.6^▴▴ g/d | Average dairy food intake [1, 19]: 23.0^▴▴ g/d | Average dairy food intake [1, 20]: 24.5^▴▴ g/d | Average dairy food intake [1, 21]: 25.9^▴▴ g/d | Average dairy food intake [1, 22]: 27.8^▴▴ g/d | Systolic pressure ([2]; 60 mg/kg/d intragastric continuous, 1 d, 30 min after administration): 155.29 ± 10.98 mmHg | Systolic pressure ([2]; 60 mg/kg/d intragastric continuous, 7 d, 30 min after administration): 158.73 ± 13.82 mmHg | Systolic pressure ([2]; 60 mg/kg/d intragastric continuous, 13 d, 30 min after administration): 153.64 ± 9.75 mmHg | Systolic pressure ([2]; 60 mg/kg/d intragastric continuous, 19 d, 30 min after administration): 154.85 ± 9.74 mmHg | Systolic pressure ([2]; 60 mg/kg/d intragastric continuous, 25 d, 30 min after administration): 151.36 ± 10.58 mmHg | Systolic pressure ([2]; 60 mg/kg/d intragastric continuous, 35 d, 30 min after administration): 153.72 ± 13.68 mmHg | Systolic pressure ([2]; 60 mg/kg/d intragastric continuous, 49 d, 30 min after administration): 151.70 ± 13.10 mmHg | Systolic pressure ([2]; 60 mg/kg/d intragastric continuous, 56 d, 30 min after administration): 153.72 ± 12.54 mmHg | Systolic pressure ([2]; 60 mg/kg/d intragastric continuous, before administration): 165.35 ± 11.62 mmHg | Systolic pressure ([2]; 120 mg/kg/d intragastric continuous, 1 d, 30 min after administration): 151.48 ± 9.85 mmHg | Systolic pressure ([2]; 120 mg/kg/d intragastric continuous, 7 d, 30 min after administration): 150.95 ± 9.68 mmHg | Systolic pressure ([2]; 120 mg/kg/d intragastric continuous, 13 d, 30 min after administration): 145.30 ± 11.62 mmHg | Systolic pressure ([2]; 120 mg/kg/d intragastric continuous, 19 d, 30 min after administration): 142.39 ± 12.49 mmHg | Systolic pressure ([2]; 120 mg/kg/d intragastric continuous, 25 d, 30 min after administration): 145.84 ± 11.46 mmHg | Systolic pressure ([2]; 120 mg/kg/d intragastric continuous, 35 d, 30 min after administration): 143.67 ± 115.62 mmHg | Systolic pressure ([2]; 120 mg/kg/d intragastric continuous, 49 d, 30 min after administration): 140.69 ± 14.72 mmHg | Systolic pressure ([2]; 120 mg/kg/d intragastric continuous, 56 d, 30 min after administration): 139.88 ± 13.04 mmHg | Systolic pressure ([2]; 120 mg/kg/d intragastric continuous, before administration): 163.64 ± 10.31 mmHg | solubility (Water solubility test): 220 µg/mL (≈ 375 µM) | Body weight [3, 5]: 228.5 g | Body weight [3, 6]: 233.6 g | Body weight [3, 7]: 244.8^▴ g | Body weight [3, 8]: 251.4 g | Body weight [3, 9]: 257.3 g | Body weight [3, 10]: 263.7^▴ g | Body weight [3, 11]: 269.6^▴ g | Body weight [3, 12]: 281.8^▴▴ g | Body weight [3, 13]: 292.8^▴▴ g | Body weight [3, 14]: 231.6 g | Body weight [3, 15]: 251.4^▴▴ g | Body weight [3, 16]: 257.6^▴▴ g | Body weight [3, 17]: 264.1^▴▴ g | Body weight [3, 18]: 271.2^▴▴ g | Body weight [3, 19]: 280.6^▴▴ g | Body weight [3, 20]: 291.2^▴▴ g | Body weight [3, 21]: 305.9^▴▴ g | Body weight [3, 22]: 320.4^▴▴ g | Systolic pressure ([4]; 60 mg/kg intragastric single administration, 30 min): 161.36 ± 9.52 mmHg | Systolic pressure ([4]; 60 mg/kg intragastric single administration, 60 min): 159.62 ± 14.25 mmHg | Systolic pressure ([4]; 60 mg/kg intragastric single administration, 90 min): 152.56 ± 11.26 mmHg | Systolic pressure ([4]; 60 mg/kg intragastric single administration, 120 min): 159.87 ± 11.32 mmHg | Systolic pressure ([4]; 60 mg/kg intragastric single administration, before administration): 165.35 ± 11.62 mmHg | Systolic pressure ([4]; 120 mg/kg intragastric single administration, 30 min): 149.69 ± 11.62 mmHg | Systolic pressure ([4]; 120 mg/kg intragastric single administration, 60 min): 155.68 ± 17.35 mmHg | Systolic pressure ([4]; 120 mg/kg intragastric single administration, 90 min): 161.30 ± 15.64 mmHg | Systolic pressure ([4]; 120 mg/kg intragastric single administration, 120 min): 158.25 ± 15.61 mmHg | Systolic pressure ([4]; 120 mg/kg intragastric single administration, before administration): 163.64 ± 10.31 mmHg
